Patent US20260207704A1, “STAPLED PEPTIDES AND METHODS THEREOF” (priority 2022, published 2026)
*1 amine or outer side, *2 acyl side, *3 side chain or, on linkers, in order; H or OH if unused. Bridges are numbered along the chain shown (N, C = ends). Primed or numbered codes have the meaning given here. [ ]: non-standard residue; d: D form. B5(4) = 2-amino-2-(pent-4-en-1-yl)hept-6-enoic acid, stapled through each of its two olefin groups with other olefin-containing amino acid residues, O=C(C(CCCC=[*:3])(CCCC=[*:4])N[*:1])[*:2]; PyrS2″ = (S)-3-amino-1-((pent-4-en-1-yloxy)carbonyl)pyrrolidine-3-carboxylic acid (olefin stapling residue), C=CCCCOC(=O)N1CC[C@@](N[*:1])(C(=O)[*:2])C1; 2F3MeF(3) = aromatic amino acid residue, Cc1cccc(C[C@H](N[*:1])C(=O)[*:2])c1F; Phe(3-COOH) = N[C@@H](Cc1cccc(C(=O)O)c1)C(=O)O; 2F3MeF = Cc1cccc(C[C@H](N[*:1])C(=O)[*:2])c1F; Bta = N[C@@H](Cc1csc2ccccc12)C(=O)O; αAllylPro = C=CC[C@@]1(C(=O)O)CCCN1; BztA = aromatic amino acid residue; 4mampiperidine = not defined here; tBuAla = CC(C)(C)C[C@H](N)C(=O)O; 3Thi = N[C@@H](Cc1ccsc1)C(=O)O; Cha = N[C@@H](CC1CCCCC1)C(=O)O; PyrS2(4) = not defined here; GlnR = not defined here; PL3 = not defined here; B5 = not defined here

B1: I-109 (peptide)
peptide: Ac-[PL3]D[tBuAla][B5]D[Phe(3-COOH)][tBuAla]AFK[PyrS2(4)][2F3MeF][Bta][GlnR]L-NH2
modifications: staple 1-4; bridge 10-14; reading uncertain; also: PyrS2 tied into a staple, partner not placed, printed as Ac-PL3-Asp-Npg-B5-Asp-3COOHF-Npg-Ala-Phe-Lys*3-PyrS2-2F3MeF-BztA-GlnR*3-Leu-NH2
B2: I-95 (peptide)
peptide: Ac-[αAllylPro]D[tBuAla][B5(4)]D[Phe(3-COOH)][GlnR]AFL[PyrS2″][2F3MeF(3)][BztA][GlnR](4mampiperidine)A-NH2
modifications: staple 1-4 (inferred); not fully specified (bridges); printed as Ac-PL3-Asp-Npg-B5-Asp-3COOHF-GlnR-Ala-Phe-Leu-PyrS2-2F3MeF-BztA-[4mampiperidine]GlnR-Ala-NH2; reading uncertain
B3: I-90 (peptide)
peptide: Ac-[PL3]D[tBuAla][B5]N[Phe(3-COOH)]QAFK[PyrS2″][3Thi][BztA][GlnR]A-NH2
modifications: staple 1-4 (inferred); bridge 10-14; not fully specified (residue 10, bridges); printed as Ac-PL3-Asp-Npg-B5-Asn-3COOHF-Gln-Ala-Phe-Lys*3-PyrS2-3Thi-BztA-GlnR*3-Ala-NH2; reading uncertain; also: Lys10 and GlnR14 marked *3
B4: I-110 (peptide)
peptide: Ac-[PL3]D[tBuAla][B5]D[Phe(3-COOH)][Cha]AFK[PyrS2(4)][2F3MeF][Bta][GlnR]L-NH2
modifications: staple 1-4; bridge 10-14; reading uncertain; also: PyrS2 tied into a staple, partner not placed, printed as Ac-PL3-Asp-Npg-B5-Asp-3COOHF-Cha-Ala-Phe-Lys*3-PyrS2-2F3MeF-BztA-GlnR*3-Leu-NH2

What follows are molecules tested on DLD1 reporter (assay: reporter assay (DLD1 reporter assay)). Settings: read-out: DLD1 4% Abs IC50; DLD1 4%.
Format: cell-based
Text: Various technologies can be utilized for characterizing and/or assessing provided technologies (e.g., agents (e.g., various peptides), compositions, methods, etc.) in accordance with the present disclosure. As described herein, in some embodiments, a useful technology is or comprises fluorescence polarization. In some embodiments, a useful technology assesses LogP or LogD. In some embodiments, a useful technology is or comprises a CHI LogD assay. In some embodiments, a useful technology assesses solubility. In some embodiments, a useful technology is or comprises NanoBRET. In some embodiments, a useful technology is or comprises a reporter assay (e.g., DLD1 reporter assay). In some embodiments, a useful technology is or comprises alphascreen. Certain useful protocols are described in the Examples. Those skilled in the art appreciate that suitable adjustments may be made to such protocols, e.g., according to specific conditions, agents, purposes, etc.
Various technologies can be utilized to assess technologies of the present disclosure. For example, in some embodiments, solubility, LogD, interactions with targets, etc. of various agents such as stapled peptides were assessed using technologies described in WO 2022/261257 (e.g., those in its Examples). In some embodiments, solubility, shake flask LogD, and binding to beta-catenin were assessed. In some embodiments, an assay for assessing interactions, e.g., with beta-catenin, was fluorescence polarization as described in WO 2022/261257. In some embodiments, an assay was Nano-BRET target engagement assay that assessed beta-catenin/TCF4 engagement as described in WO 2022/261257. In some embodiments, an assay was a reporter assay as reported in Example 4 of WO 2022/261257. In some embodiments, an assay was a COLO320DM proliferation assay as reported in Example 4 of WO 2022/261257.

| Molecule | IC50 |
| --- | --- |
| CC(=O)N1CCC[C@]12CC=CCCCC1(CCCC=CCCCOC(=O)N3CC[C@@]4(C3)NC(=O)[C@H](CCCCNC(=O)CC[C@@H](C(=O)N[C@@H](C)C(N)=O)NC(=O)[C@H](Cc3csc5ccccc35)NC(=O)[C@H](Cc3ccsc3)NC4=O)NC(=O)[C@H](Cc3ccccc3)NC(=O)[C@H](C)NC(=O)C(C)(C)NC(=O)[C@H](Cc3cccc(C(=O)O)c3)NC(=O)[C@H](CC(=O)O)NC1=O)NC(=O)[C@H](CC(C)(C)C)NC(=O)[C@H]([C@H](C)O)NC2=O (relative stereo) [I-163, Ac-PL3-aThr-Npg-B5-Asp-3COOHF-Aib-Ala-Phe-Lys*3-PyrS2-3Thi-BztA-GlnR*3-Ala-NH2] | > 5 µM |
| CC(=O)N1CCC[C@]12CC=CCCCC1(CCCC=CCCCOC(=O)N3CC[C@@]4(C3)NC(=O)[C@H](CCCCNC(=O)CC[C@@H](C(=O)N[C@@H](C)C(N)=O)NC(=O)[C@H](Cc3csc5ccccc35)NC(=O)[C@H](Cc3ccccc3C(F)(F)F)NC4=O)NC(=O)[C@H](Cc3ccccc3)NC(=O)[C@H](C)NC(=O)[C@H](C(C)C)NC(=O)[C@H](CN(CC(=O)O)CC(F)(F)F)NC(=O)[C@H](CC(=O)O)NC1=O)NC(=O)[C@H](CC(C)(C)C)NC(=O)[C@H](CC(=O)O)NC2=O (single isomer, unassigned) [I-125, Ac-PL3-Asp-Npg-B5-Asp-TfeGA-Val-Ala-Phe-Lys*3-PyrS2-2F3MeF-BztA-GlnR*3-Ala-NH2] | 1 to 5 µM |
| CC(=O)N1CCC[C@]12CC=CCCCC1(CCCC=CCCCOC(=O)N3CC[C@@]4(C3)NC(=O)[C@H](CCCCNC(=O)CC[C@@H](C(=O)N[C@H](C(N)=O)C(C)C)NC(=O)[C@H](Cc3csc5ccccc35)NC(=O)[C@H](Cc3ccccc3C(F)(F)F)NC4=O)NC(=O)[C@H](Cc3ccccc3)NC(=O)[C@H](C)NC(=O)[C@H](C)NC(=O)[C@H](CN(CC(=O)O)CC(F)(F)F)NC(=O)[C@H](CC(=O)O)NC1=O)NC(=O)[C@H](CC(C)(C)C)NC(=O)[C@H](CC(=O)O)NC2=O (relative stereo) [I-129, Ac-PL3-Asp-Npg-B5-Asp-TfeGA-Ala-Ala-Phe-Lys*3-PyrS2-2F3MeF-BztA-GlnR*3-Val-NH2] | 1 to 5 µM |
| CC(=O)N1CCC[C@]12CC=CCCCC1(CCCC=CCCCOC(=O)N3CC[C@@]4(C3)NC(=O)[C@H](CCCCNC(=O)CC[C@@H](C(=O)NC(C)(C)C(N)=O)NC(=O)[C@H](Cc3csc5ccccc35)NC(=O)[C@H](Cc3ccccc3C(F)(F)F)NC4=O)NC(=O)[C@H](Cc3ccccc3)NC(=O)[C@H](C)NC(=O)[C@H](C)NC(=O)[C@H](CN(CC(=O)O)CC(F)(F)F)NC(=O)[C@H](CC(=O)O)NC1=O)NC(=O)[C@H](CC(C)(C)C)NC(=O)[C@H](CC(=O)O)NC2=O (single isomer, unassigned) [I-126, Ac-PL3-Asp-Npg-B5-Asp-TfeGA-Ala-Ala-Phe-Lys*3-PyrS2-2F3MeF-BztA-GlnR*3-Aib-NH2] | 1 to 5 µM |
| CC(=O)N1CCC[C@]12CC=CCCCC1(CCCC=CCCCOC(=O)N3CC[C@@]4(C3)NC(=O)[C@H](CCCCNC(=O)CCC[C@@H](C(=O)N[C@@H](C)C(N)=O)NC(=O)[C@H](Cc3csc5ccccc35)NC(=O)[C@H](Cc3ccsc3)NC4=O)NC(=O)[C@H](Cc3ccccc3)NC(=O)[C@H](C)NC(=O)[C@H](C)NC(=O)[C@H](Cc3cccc(C(=O)O)c3)NC(=O)[C@H](CC(=O)O)NC1=O)NC(=O)[C@H](CC(C)(C)C)NC(=O)[C@H](CC(=O)O)NC2=O (relative stereo) [I-183, Ac-PL3-Asp-Npg-B5-Asp-3COOHF-Ala-Ala-Phe-Lys*3-PyrS2-3Thi-BztA-hGlnR*3-Ala-NH2] | 1 to 5 µM |
| CC(=O)N1CCC[C@]12CC=CCCCC1(CCCC=CCCCOC(=O)N3CC[C@@]4(C3)NC(=O)[C@H](CCCCNC(=O)CC[C@@H](C(=O)N[C@@H](CC(C)C)C(N)=O)NC(=O)[C@H](Cc3csc5ccccc35)NC(=O)[C@H](Cc3ccccc3C(F)(F)F)NC4=O)NC(=O)[C@H](Cc3ccccc3)NC(=O)[C@H](C)NC(=O)[C@H](C)NC(=O)[C@H](CN(CC(=O)O)CC(F)(F)F)NC(=O)[C@H](CC(=O)O)NC1=O)NC(=O)[C@H](CC(C)(C)C)NC(=O)[C@H](CC(=O)O)NC2=O (relative stereo) [I-128, Ac-PL3-Asp-Npg-B5-Asp-TfeGA-Ala-Ala-Phe-Lys*3-PyrS2-2F3MeF-BztA-GlnR*3-Leu-NH2] | 1 to 5 µM |
| CC(=O)N1CCC[C@]12CC=CCCCC1(CCCC=CCCCOC(=O)N3CC[C@@]4(C3)NC(=O)[C@H](CCCCNC(=O)CC[C@@H](C(=O)N[C@@H](C)C(N)=O)NC(=O)[C@H](Cc3csc5ccccc35)NC(=O)[C@H](Cc3ccccc3C(F)(F)F)NC4=O)NC(=O)[C@H](Cc3ccccc3)NC(=O)[C@H](C)NC(=O)[C@H](CC(C)(C)C)NC(=O)[C@H](Cc3cccc(C(=O)O)c3)NC(=O)[C@H](CC(=O)O)NC1=O)NC(=O)[C@H](CC(C)(C)C)NC(=O)[C@H](CC(=O)O)NC2=O (single isomer, unassigned) [I-99, Ac-PL3-Asp-Npg-B5-Asp-3COOHF-Npg-Ala-Phe-Lys*3-PyrS2-2F3MeF-BztA-GlnR*3-Ala-NH2] | ≤ 1 µM |
| CC(=O)N1CCC[C@]12CC=CCCCC1(CCCC=CCCCOC(=O)N3CC[C@@]4(C3)NC(=O)[C@H](CCCCNC(=O)CC[C@@H](C(=O)N[C@@H](C)C(N)=O)NC(=O)[C@H](Cc3csc5ccccc35)NC(=O)[C@H](Cc3ccccc3C(F)(F)F)NC4=O)NC(=O)[C@H](Cc3ccccc3)NC(=O)[C@H](C)NC(=O)C(C)(C)NC(=O)[C@H](Cc3cccc(C(=O)O)c3)NC(=O)[C@H](CCC(=O)O)NC1=O)NC(=O)[C@H](CC(C)(C)C)NC(=O)[C@H](CCC(=O)O)NC2=O (relative stereo) [I-291, Ac-PL3-Glu-Npg-B5-Glu-3COOHF-Aib-Ala-Phe-Lys*3-PyrS2-2F3MeF-BztA-GlnR*3-Ala-NH2] | 1 to 5 µM |

Same assay, conditions: read-out: DLD1 4% Abs IC50; DLD1 reporter, 4%

| Molecule | IC50 |
| --- | --- |
| CC(=O)N1CCC[C@]12CC=CCCCC1(CCCC=CCCCOC(=O)N3CC[C@@]4(C3)NC(=O)[C@H](Cc3cn(nn3)CCCC[C@@H](C(=O)N[C@@H](C)C(N)=O)NC(=O)[C@H](Cc3csc5ccccc35)NC(=O)[C@H](Cc3ccsc3)NC4=O)NC(=O)[C@H](Cc3ccccc3)NC(=O)[C@H](C)NC(=O)C(C)(C)NC(=O)[C@H](Cc3cccc(C(=O)O)c3)NC(=O)[C@H](CC(=O)O)NC1=O)NC(=O)[C@H](CC(C)(C)C)NC(=O)[C@H](CC(=O)O)NC2=O (stereo partly drawn) [I-336, Ac-PL3-Asp-Npg-B5-Asp-3COOHF-Aib-Ala-Phe-sAla*3-PyrS2-3Thi-BztA-TriAzLys*3-Ala-NH2] | 1 to 5 µM |
| CC(=O)N1CCC[C@]12CC=CCCCC1(CCCC=CCCCOC(=O)N3CC[C@@]4(C3)NC(=O)[C@H](Cc3cn(nn3)CCCC[C@@H](C(=O)N[C@@H](C)C(N)=O)NC(=O)[C@H](Cc3csc5ccccc35)NC(=O)[C@H](Cc3ccsc3)NC4=O)NC(=O)[C@H](Cc3ccccc3)NC(=O)[C@H](C)NC(=O)[C@H](C)NC(=O)[C@H](Cc3cccc(C(=O)O)c3)NC(=O)[C@H](CC(=O)O)NC1=O)NC(=O)[C@H](CC(C)(C)C)NC(=O)[C@H](CC(=O)O)NC2=O (stereo partly drawn) [I-338, Ac-PL3-Asp-Npg-B5-Asp-3COOHF-Ala-Ala-Phe-sAla*3-PyrS2-3Thi-BztA-TriAzLys*3-Ala-NH2] | ≤ 1 µM |

What follows are molecules tested against beta-catenin (human) (assay: fluorescence polarization; bin >50 nM). Settings: not given.
beta-catenin (human), sequence (B6V8E6 146-665 limits assumed): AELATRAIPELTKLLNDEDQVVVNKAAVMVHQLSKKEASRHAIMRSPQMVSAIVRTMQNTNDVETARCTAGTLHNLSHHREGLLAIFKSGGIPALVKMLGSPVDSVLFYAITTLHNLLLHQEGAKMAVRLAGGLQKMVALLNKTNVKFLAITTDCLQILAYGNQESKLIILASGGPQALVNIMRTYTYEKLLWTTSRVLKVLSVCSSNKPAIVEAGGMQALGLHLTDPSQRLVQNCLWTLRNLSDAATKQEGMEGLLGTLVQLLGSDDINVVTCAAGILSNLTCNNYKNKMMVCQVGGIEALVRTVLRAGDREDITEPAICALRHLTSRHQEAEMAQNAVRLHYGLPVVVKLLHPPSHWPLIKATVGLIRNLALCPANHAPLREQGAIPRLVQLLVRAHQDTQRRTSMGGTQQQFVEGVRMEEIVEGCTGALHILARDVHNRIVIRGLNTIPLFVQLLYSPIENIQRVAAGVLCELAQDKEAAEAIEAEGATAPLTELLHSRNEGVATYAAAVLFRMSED

| Molecule | IC50 |
| --- | --- |
| B1 | < 0.2 µM |
| B2 | < 0.2 µM |
| B3 | < 0.2 µM |
| B4 | < 0.2 µM |
